Columns and labels:
[1] = target: GDP-bound KRAS wild-type protein (Homo sapiens, UniProt P01116); experiment: Binding to KRAS by surface plasmon resonance (SPR), Single Cycle Kinetics; conditions: SPR, Single Cycle Kinetics, GDP-bound KRAS wild-type protein; read-out: KRAS KD
[2] = target: GDP-bound NRAS wild-type protein (Homo sapiens, UniProt P01111); experiment: Binding to NRAS by surface plasmon resonance (SPR), Single Cycle Kinetics; conditions: SPR, GDP-bound NRAS wild-type protein vs GDP-bound KRAS wild-type protein
[3] = target: GDP-bound HRAS wild-type protein (Homo sapiens, UniProt P01112); experiment: Binding to HRAS by surface plasmon resonance (SPR), Single Cycle Kinetics; conditions: SPR, GDP-bound HRAS wild-type protein vs GDP-bound KRAS wild-type protein
Sequence of GDP-bound HRAS wild-type protein (P01112 whole entry): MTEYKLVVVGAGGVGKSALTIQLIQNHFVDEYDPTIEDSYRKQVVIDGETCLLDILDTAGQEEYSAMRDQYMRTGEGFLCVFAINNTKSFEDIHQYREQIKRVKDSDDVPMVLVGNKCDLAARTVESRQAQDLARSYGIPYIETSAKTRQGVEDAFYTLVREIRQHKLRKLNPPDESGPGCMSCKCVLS

Sequence of GDP-bound KRAS wild-type protein (P01116 whole entry): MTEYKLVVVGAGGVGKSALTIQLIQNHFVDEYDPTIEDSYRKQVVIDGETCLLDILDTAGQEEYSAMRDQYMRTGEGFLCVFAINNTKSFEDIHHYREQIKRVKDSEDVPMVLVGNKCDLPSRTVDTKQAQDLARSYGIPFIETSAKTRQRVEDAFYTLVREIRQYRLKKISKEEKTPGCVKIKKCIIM
Sequence of GDP-bound NRAS wild-type protein (P01111 whole entry): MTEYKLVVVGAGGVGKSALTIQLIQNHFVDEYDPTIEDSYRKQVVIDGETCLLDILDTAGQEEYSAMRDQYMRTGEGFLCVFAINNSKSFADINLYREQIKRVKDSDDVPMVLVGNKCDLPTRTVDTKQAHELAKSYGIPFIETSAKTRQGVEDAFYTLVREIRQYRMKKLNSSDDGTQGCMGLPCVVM

SMILES	Kd [1]	NRAS/KRAS (ratio of KD value for NRAS to KD value for KRAS) [2]	HRAS/KRAS (ratio of KD value for HRAS to KD value for KRAS) [3]
CCO[C@@H]1C[C@H]2C(=O)NC3(CCC3)C(=O)N(C)[C@@H](C3CCCC3)C(=O)N(C)[C@H](C(=O)N3CCCCC3)CC(=O)N(C)[C@H]3CCCCCCc4ccc(cc4)C[C@@H](C(=O)N(C)CC(=O)N[C@@H](CCc4ccc(C(F)(F)F)c(OC)c4)C(=O)N2C1)N1CC/C=C\C[C@@H](C1=O)N(C)C(=O)CN(C)C(=O)[C@H]([C@@H](C)CC)NC3=O [PP3033, (1S,7S,11R,13S,19S,22S,26S,29S,35S,37Z)-19-cyclopentyl-11-ethoxy-7-[2-[3-methoxy-4-(trifluoromethyl)phenyl]ethyl]-3,18,21,25,31,34-hexamethyl-29-[(1S)-1-methylpropyl]-22-(piperidine-1-carbonyl)spiro[3,6,9,15,18,21,25,28,31,34,41-undecazapentacyclo[24.15.11.2^43,46.1^35,41.0^9,13]pentapentaconta-37,43(54),44,46(53)-tetraene-16,1′-cyclobutane]-2,5,8,14,17,20,24,27,30,33,55-undecone]	0.18 nM	A (a compound having 10 or more and less than 20 is denoted as A)	B (a compound having 3 or more and less than 10 is denoted as B)
CCO[C@@H]1C[C@H]2C(=O)NC3(CC(C)(C)C3)C(=O)N(C)[C@@H](C3CCCC3)C(=O)N(C)[C@H](C(=O)N3CCCC3)CC(=O)N(C)[C@H]3CCCCCCc4ccc(cc4)C[C@@H](C(=O)N(C)CC(=O)N[C@@H](CCc4ccc(C(F)(F)F)c(OC)c4)C(=O)N2C1)N1CC/C=C\C[C@@H](C1=O)N(C)C(=O)CN(C)C(=O)[C@H]([C@@H](C)CC)NC3=O [PP3034, (1S,7S,11R,13S,19S,22S,26S,29S,35S,37Z)-19-cyclopentyl-11-ethoxy-7-[2-[3-methoxy-4-(trifluoromethyl)phenyl]ethyl]-3,3′,3′,18,21,25,31,34-octamethyl-29-[(1S)-1-methylpropyl]-22-(pyrrolidine-1-carbonyl)spiro[3,6,9,15,18,21,25,28,31,34,41-undecazapentacyclo[24.15.11.2^43,46.1^35,41.0^9,13]pentapentaconta-37,43(54),44,46(53)-tetraene-16,1′-cyclobutane]-2,5,8,14,17,20,24,27,30,33,55-undecone]	0.11 nM	A (a compound having 10 or more and less than 20 is denoted as A)	B (a compound having 3 or more and less than 10 is denoted as B)
CCO[C@@H]1C[C@H]2C(=O)NC3(CC(C)(C)C3)C(=O)N(C)[C@@H](C(CC)CC)C(=O)N(C)[C@H](C(=O)N(C)C)CC(=O)N(C)[C@H]3CCCCCc4ccc(cc4)C[C@@H](C(=O)N(C)CC(=O)N[C@@H](CCc4ccc(C(F)(F)F)c(OC)c4)C(=O)N2C1)N1CC/C=C\C[C@@H](C1=O)N(C)C(=O)CN(C)C(=O)[C@H]([C@@H](C)CC)NC3=O [PP3035]	0.092 nM	AA (a compound having 20 or more is denoted as AA)	A (a compound having 10 or more and less than 20 is denoted as A)
CCO[C@@H]1C[C@H]2C(=O)NC3(CC(C)(C)C3)C(=O)N(C)[C@@H](C3CCCC3)C(=O)N(C)[C@H](C(=O)N3CCCCC3)CC(=O)N(C)[C@H]3CCCCCc4ccc(cc4)C[C@@H](C(=O)N(C)CC(=O)N[C@@H](CCc4ccc(C(F)(F)F)c(OC)c4)C(=O)N2C1)N1CC/C=C\C[C@@H](C1=O)N(C)C(=O)CN(C)C(=O)[C@H]([C@@H](C)CC)NC3=O [PP3036, (1S,7S,11R,13S,19S,22S,26S,29S,35S,37Z)-19-cyclopentyl-11-ethoxy-7-[2-[3-methoxy-4-(trifluoromethyl)phenyl]ethyl]-3,3′,3′,18,21,25,31,34-octamethyl-29-[(1S)-1-methylpropyl]-22-(piperidine-1-carbonyl)spiro[3,6,9,15,18,21,25,28,31,34,41-undecazapentacyclo[24.15.10.2^43,46.1^35,41.0^9,13]tetrapentaconta-37,43(53),44,46(52)-tetraene-16,1′-cyclobutane]-2,5,8,14,17,20,24,27,30,33,54-undecone]	0.17 nM	A (a compound having 10 or more and less than 20 is denoted as A)	B (a compound having 3 or more and less than 10 is denoted as B)
CCO[C@@H]1C[C@H]2C(=O)NC3(CC(C)(C)C3)C(=O)N(C)[C@@H](C3CCCC3)C(=O)N(C)[C@H](C(=O)N3CCCC3)CC(=O)N(C)[C@H]3CCCCCc4ccc(cc4)C[C@@H](C(=O)N(C)CC(=O)N[C@@H](CCc4ccc(C(F)(F)F)c(OC)c4)C(=O)N2C1)N1CC/C=C\C[C@@H](C1=O)N(C)C(=O)CN(C)C(=O)[C@H]([C@@H](C)CC)NC3=O [PP3037, (1S,7S,11R,13S,19S,22S,26S,29S,35S,37Z)-19-cyclopentyl-11-ethoxy-7-[2-[3-methoxy-4-(trifluoromethyl)phenyl]ethyl]-3,3′,3′,18,21,25,31,34-octamethyl-29-[(1S)-1-methylpropyl]-22-(pyrrolidine-1-carbonyl)spiro[3,6,9,15,18,21,25,28,31,34,41-undecazapentacyclo[24.15.10.2^43,46.1^35,41.0^9,13]tetrapentaconta-37,43(53),44,46(52)-tetraene-16,1′-cyclobutane]-2,5,8,14,17,20,24,27,30,33,54-undecone]	0.11 nM	A (a compound having 10 or more and less than 20 is denoted as A)	B (a compound having 3 or more and less than 10 is denoted as B)
CCCO[C@@H]1C[C@H]2C(=O)NC3(CC(C)(C)C3)C(=O)N(C)[C@@H](C(CC)CC)C(=O)N(C)[C@H](C(=O)N(C)C)CC(=O)N(C)[C@H]3CCCCc4ccc(cc4)C[C@@H](C(=O)N(C)CC(=O)N[C@@H](CCc4ccc(C(F)(F)F)c(OC)c4)C(=O)N2C1)N1CC/C=C\C[C@@H](C1=O)N(C)C(=O)CN(C)C(=O)[C@H]([C@@H](C)CC)NC3=O [PP3038]	0.15 nM	A (a compound having 10 or more and less than 20 is denoted as A)	A (a compound having 10 or more and less than 20 is denoted as A)
CCO[C@@H]1C[C@H]2C(=O)NC3(CCC3)C(=O)N(C)[C@@H](C(CC)CC)C(=O)N(C)[C@H](C(=O)N3CCCC3)CC(=O)N(C)[C@H]3CCC/C=C/c4ccc(cc4)C[C@@H](C(=O)N(C)CC(=O)N[C@@H](CCc4ccc(Cl)c(Cl)c4)C(=O)N2C1)N1CC/C=C\C[C@@H](C1=O)N(C)C(=O)CN(C1CC1)C(=O)[C@H]([C@@H](C)CC)NC3=O [PP3040]	0.29 nM	AA (a compound having 20 or more is denoted as AA)	A (a compound having 10 or more and less than 20 is denoted as A)
CCO[C@@H]1C[C@H]2C(=O)NC3(CC(C)(C)C3)C(=O)N(C)[C@@H](C(CC)CC)C(=O)N(C)[C@H](C(=O)N(C)C)CC(=O)N(C)[C@H]3CCCC/C=C/c4ccc(cc4)C[C@@H](C(=O)N(C)CC(=O)N[C@@H](CCc4ccc(Cl)c(Cl)c4)C(=O)N2C1)N1CC/C=C\C[C@@H](C1=O)N(C)C(=O)CN(C)C(=O)[C@H]([C@@H](C)CC)NC3=O [PP3045]	0.13 nM	AA (a compound having 20 or more is denoted as AA)	A (a compound having 10 or more and less than 20 is denoted as A)
CCO[C@@H]1C[C@H]2C(=O)NC3(CCC3)C(=O)N(C)[C@@H](C(CC)CC)C(=O)N(C)[C@H](C(=O)N3CCCCC3)CC(=O)N(C)[C@H]3CCCC/C=C/c4ccc(cc4)C[C@@H](C(=O)N(C)CC(=O)N[C@@H](CCc4ccc(Cl)c(Cl)c4)C(=O)N2C1)N1CC/C=C\C[C@@H](C1=O)N(C)C(=O)CN(C)C(=O)[C@H]([C@@H](C)CC)NC3=O [PP3046]	0.39 nM	AA (a compound having 20 or more is denoted as AA)	A (a compound having 10 or more and less than 20 is denoted as A)
CCO[C@@H]1C[C@H]2C(=O)NC3(CCC3)C(=O)N(C)[C@@H](C(CC)CC)C(=O)N(C)[C@H](C(=O)N3CCCC3)CC(=O)N(C)[C@H]3CCCC/C=C/c4ccc(cc4)C[C@@H](C(=O)N(C)CC(=O)N[C@@H](CCc4ccc(Cl)c(Cl)c4)C(=O)N2C1)N1CC/C=C\C[C@@H](C1=O)N(C)C(=O)CN(C)C(=O)[C@H]([C@@H](C)CC)NC3=O [PP3047, (1S,7S,11R,13S,19S,22S,26S,29S,35S,37Z,47E)-7-[2-(3,4-dichlorophenyl)ethyl]-11-ethoxy-19-(1-ethylpropyl)-3,18,21,25,31,34-hexamethyl-29-[(1S)-1-methylpropyl]-22-(pyrrolidine-1-carbonyl)spiro[3,6,9,15,18,21,25,28,31,34,41-undecazapentacyclo[24.15.11.2^43,46.1^35,41.0^9,13]pentapentaconta-37,43(54),44,46(53),47-pentaene-16,1′-cyclobutane]-2,5,8,14,17,20,24,27,30,33,55-undecone]	0.18 nM	AA (a compound having 20 or more is denoted as AA)	A (a compound having 10 or more and less than 20 is denoted as A)
CCO[C@@H]1C[C@H]2C(=O)NC3(CC(C)(C)C3)C(=O)N(C)[C@@H](C(CC)CC)C(=O)N(C)[C@H](C(=O)N(C)C)CC(=O)N(C)[C@H]3CCCCC/C=C/c4ccc(cc4)C[C@@H](C(=O)N(C)CC(=O)N[C@@H](CCc4cc(F)c(C(F)(F)F)c(F)c4)C(=O)N2C1)N1CC/C=C\C[C@@H](C1=O)N(C)C(=O)CN(C)C(=O)[C@H]([C@@H](C)CC)NC3=O [PP3048]	0.11 nM	A (a compound having 10 or more and less than 20 is denoted as A)	A (a compound having 10 or more and less than 20 is denoted as A)

Reference: US20240158446A1, “CYCLIC COMPOUND HAVING SELECTIVE INHIBITORY ACTION ON KRAS OVER HRAS AND NRAS” (CHUGAI SEIYAKU KABUSHIKI KAISHA, priority 2021, published 2024)
